Test results from patent publication US11471448B2 (priority 2020, dated 2022).

Tested on: rat venous stasis model, LPS-induced ARDS
Experiment: Rat venous stasis (Wessler) model after LPS-induced lung injury (ARDS induced thrombosis)
Assay type: in vivo
Conditions: 250 mg/kg oral gavage 3, 24, 48, 72 h post LPS instillation; Sprague-Dawley rats; 30 min stasis
Source text: This study assessed the efficacy of ABC294640 to reduce the incidence of adverse thromboembolic events in situ in acute respiratory distress syndrome (ARDS) conditions using a rat venous stasis model. This assay is designed to measure thrombotic risks following LPS-induced lung injury. LPS-induced lung injury is one of the most commonly used rodent models for ARDS and was described to mimic the neutrophilic inflammatory response observed in ARDS patients. The mechanism of LPS-induced ARDS is based on damage to endothelial cells and a systemic inflammatory response. […]
Sprague-Dawley rats (male) weighing between 275 and 400 g were used for this study. […] The body weight was recorded before the instillation and 24, 48 and 72 hours post-instillation.
In this study, ARDS was induced by intratracheal instillation of LPS. […] The segment was then excised and its content scored. […]
• 1. Prior LPS or saline instillation, the functional respiratory parameters of all rat was assessed by whole-body plethysmography and SpO2 was evaluated on conscious rat with a collar probe pulse oximeter. […] The respiratory rate, the Penh and the inspiratory/expiratory time measurements was analyzed. • 2. […]
• 5. Rats were evaluated periodically to ensure animal well-being (general behavior and daily body weight). • 6. […] SpO2 and whole-body plethysmography were also evaluated 24, 48 and 72 hours post-instillation. • 8. […]

O=C(NCc1ccncc1)C12CC3CC(C1)CC(c1ccc(Cl)cc1)(C3)C2 [ABC294640, 3-(4-chlorophenyl)-adamantane-1-carboxylic acid (pyridin-4-ylmethyl)amide]
thrombosis (blood clot length, weight and total thrombus score): reduction of thrombosis
